The text below walks through data of PubChem BioAssay AID179 (DTP/NCI, 2004).

Structures are written as SMILES. Where “and” joins values, the source holds several entries; their conditions need not be identical. Identical values can stand only once. Calls of active or inactive are those of the source.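 Rule for the calls: active = compounds giving half or more protection of infected cells from virus-caused growth loss, again on retest; inactive = the rest.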 Where a SMILES comes first, the peptide text is derived from it. [ ]: non-standard residue; d: D form. The star is where a group is joined. ξ: configuration not given here. ξD = NC(CC(=O)O)C(=O)O; Ac3c = NC1(C(=O)O)CC1; Boc = CC(C)(C)OC(=O)*; OtBu = CC(C)(C)O* A value given as a limit tells only on which side of the number the result lay.

This test relates to CEM cells HIV-1 protection, formazan growth assay. As to the kind of experiment: NCI AIDS Antiviral Assay. The following applies: for IC50: measured here: growth of uninfected CEM cells. The procedure, abridged: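 Soluble formazan readout of cell growth; CEM cells ± HIV-1; 5 drug concs. ≥50% protection → retest; ≥50% again = moderately active; reproducible 100% = confirmed active.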

Take `O=C1NC(=S)N/C1=C\c1cccs1`: the EC50 is over 200 µM and the IC50 stood at 182 µM.

`O=c1c(Cl)c2cc3c(cc2c2ccccc12)nc1cccnc1n3C1CCCCC1`: the EC50 is over 39.8 µM and the IC50 was over 39.8 µM.

`CCOP(=O)(O)CN1CCNCCN(CP(=O)(O)OCC)CCNCC1`: the EC50 was over 100 µM and the IC50 is over 100 µM.

For the molecule `O=C1c2ccccc2C(=O)C1(Cl)C1(S(=O)(=O)O)c2ccccc2-c2ccccc21`, the outcome was inactive.

On to `CCOC(=O)NC(Nc1ccc(C(=O)OCC)cc1)(C(F)(F)F)C(F)(F)F`, for which the EC50 was over 200 µM and the IC50 came out at 17 µM.

Take `COc1ccc(C(C)(C)c2cc3c(cc2OC)OCO3)cc1`: the EC50 was over 45.7 µM and the IC50 is 0.0316 µM.

On to `CN1CN(C(=O)N2CN(C)C(=O)N(C)C2)CN(C)C1=O`, for which the EC50 was over 158 µM and the IC50 was over 158 µM.

On to `O=C1OCC=C1COC1OC(CO)C(O)C(O)C1O` (centres undefined), for which the EC50 is over 200 µM and the half-inhibitory concentration (IC50) was determined as 77.6 µM.

On to `CCN(C(=S)N[C@@H](Cc1ccccc1)C(=O)N[C@@H](CC(C)C)C(=O)OC)c1ccccc1`, for which the EC50 is over 200 µM and the IC50 turned out to be 25.7 µM.

`Cc1cc(NS(=O)(=O)c2ccc(N=[N+]([O-])c3ccc(S(=O)(=O)Nc4cc(C)on4)cc3)cc2)no1`: the EC50 is over 200 µM and the IC50 was over 200 µM.

`C=CCn1c(=O)c2ccccc2[n+]2c(C)c(C(=O)OCC)sc12`: the EC50 was 132 µM and the IC50 is over 200 µM.

Consider `O=C(/C=C/c1ccccc1)c1cc2c(cc1O)OCO2`, for which the EC50 is over 70.8 µM and the IC50 was 5.25 µM.

For `COc1ccccc1/C=C/C(=O)N1CCC2(CC1)C(=O)N(C)CN2c1ccccc1`, the EC50 is over 200 µM and the IC50 was 51.3 µM.

With `O=C1NC(N2CCOCC2)=N/C1=C\c1ccccc1O`, the EC50 is over 200 µM and the IC50 is over 200 µM.

Turning to `COC(=O)C1(NC(=O)C(CC(=O)OC(C)(C)C)NC(=O)OC(C)(C)C)CC1` (centres undefined) (Boc-[ξD](OtBu)-[Ac3c]-OMe), the EC50 was over 200 µM and the IC50 is over 200 µM.

As for `COC(=O)C1=COC(C)C2C[n+]3ccc4c([nH]c5ccccc54)c3CC12` (centres undefined), the EC50 was over 200 µM and the IC50 is over 200 µM.

Regarding `Nc1ccccc1OCCCOc1ccccc1N`, the EC50 was over 200 µM and the IC50 amounted to 110 µM.

Take `CSC1=NNC(SC)=NN1`: the EC50 was over 200 µM and the IC50 was found to be 0.708 µM.

On to `O=C1NC(=S)N/C1=C\c1ccc(Sc2ccccc2C(=O)O)s1`, for which the EC50 is over 200 µM and the IC50 came out at 110 µM.

As to `N#Cc1nc(COCc2ccccc2)oc1N`, the EC50 was over 200 µM and the IC50 amounted to 95.5 µM.

Regarding `CC1(C)CC2C(/C1=N/O)C1(C)CCCC2(C)C1O` (centres undefined), the EC50 was over 200 µM and the IC50 is over 200 µM.

`CCC[CH2][Sn]([CH2]CCC)([O]C(=O)/C=C/c1ccccc1F)[O]C(=O)/C=C/c1ccccc1F`: the EC50 is over 9.33 µM and the IC50 was over 9.33 µM.

As for `CCCCC1C=Cn2c(=O)oc3c(OC(C)C)c(OC(C)C)c(O)c1c32` (centres undefined), the EC50 was over 200 µM and the IC50 came to 13.2 µM.

Take `O=C1/C(=C/c2ccc(Br)s2)NC(=S)N1CN1CCCCC1`: the EC50 is over 200 µM and the IC50 was found to be 38 µM.

On to `CCN(CC)CCC(=O)OC1C(C)=CC(C)C(=O)CC(C(C)CC2CCC(O)C(OC)C2)OC(=O)C2CCCCN2C(=O)C(=O)[C@@]2(O)OC(CCC2C)CC(OC)\C(C)=C/C=C/C=C/C(C)CC(C)C(=O)C1OC` (some centres undefined), for which the EC50 is over 200 µM and the IC50 turned out to be 9.12 µM.

With `CCCCCCCC(=O)OCC1OC(n2cc(F)c(=O)[nH]c2=O)C(NC(=O)OCc2ccccc2)C(OC(=O)CCCCCCC)C1O` (centres undefined), the EC50 is over 10.7 µM and the IC50 was over 10.7 µM.

For `CCOC(=O)C1=C(C)N(NC(N)=O)C2(N)N(NC(N)=O)C(C)=C(C(=O)OCC)C12C(=O)OCC` (centres undefined), the EC50 was over 513 µM and the IC50 was over 513 µM.

Consider `Cc1ccc(N2CC(=O)N3CCCC(c4ccccc4)N3C(=O)C2)cc1` (centres undefined), for which the result was inactive.

With `[O-][n+]1ccccc1SSc1cccc[n+]1[O-]`, the EC50 was over 2 µM and the IC50 amounted to 0.141 µM.

With `COc1ccc2c(c1OC)C13CCCC[C@H]1C(C2)[N+](C)(C)CC3` (some centres undefined), the EC50 was over 562 µM and the IC50 is over 562 µM.

Take `C/C=C/COc1cc(NC(=S)c2ccoc2C)ccc1OC`: the EC50 is 0.813 µM and the IC50 is 1.62 µM.

Turning to `[N-]=[N+]=Nc1nc2ccccc2c(N=[N+]=[N-])c1Cl`, the EC50 is over 200 µM and the IC50 stood at 132 µM.

With `CC1(C)CC(=O)C2=C(C1)C(c1ccccc1Cl)C1C(=O)CC(C)(C)CC1(O)O2` (centres undefined), the EC50 is over 200 µM and the IC50 came to 28.8 µM.

On to `CCOC(=O)C1C/C(C)=C(/C)SCCCS1` (centres undefined), for which the EC50 is over 200 µM and the IC50 worked out at 45.7 µM.

`CCOC(=O)c1cc(NC(=O)c2ccccc2)c(=O)n2c(cc3c(Cl)cccc32)c1O`: the EC50 was over 200 µM and the IC50 was over 200 µM.

For the molecule `CCn1c2c(n(CC)c1=S)-c1c(n(CC)c(=S)n1CC)SSSS2`, the EC50 was over 58.9 µM and the IC50 was over 58.9 µM.

In the case of `COc1c2c3c4c(c(OC)c(=O)c5c(O)c(Br)c(OC)c(c6c(OC)c(Br)c(O)c(c1=O)c36)c54)C(C(C)=O)=C(C)C2`, the EC50 was over 13.8 µM and the IC50 was found to be 1.45 µM.

In the case of `Cc1ccc2c(c1)nc1c3ccccc3nc(-c3ccccc3N)n21`, the EC50 was over 28.8 µM and the IC50 is over 28.8 µM.

For `O=C(Nc1nc2ccccc2n1Cc1ccc(Cl)cc1)C(=O)NC12CC3CC(CC(C3)C1)C2`, the EC50 is over 21.4 µM and the IC50 was over 21.4 µM.

Take `O=C(Nn1c(-c2ccccc2)nc2ccccc2c1=O)c1ccc([N+](=O)[O-])cc1`: the EC50 was over 200 µM and the IC50 is over 200 µM.

With `CC1(C)CN=C(Nc2ccc(F)c(F)c2)S1`, the EC50 is over 200 µM and the IC50 was over 200 µM.

Turning to `COC(=O)C1OC12CCCCC2` (centres undefined), the EC50 was over 200 µM and the IC50 is over 200 µM.

As for `COc1ccc(OC(C(=O)O)C(C)C)c2c1CCCC2=O` (centres undefined), the outcome was inactive.

Turning to `CC(=O)OCCOCn1cnc2c(Cl)nc(Cl)nc21`, the EC50 was over 200 µM and the IC50 came to 7.24 µM.

With `CSc1cc(-c2ccc(Cl)cc2)s[s+]1`, the EC50 is 50.1 µM and the IC50 amounted to 115 µM.

As for `O=c1[nH]nc(Cc2ccccc2)n1Nc1ccccc1`, the EC50 is over 200 µM and the IC50 was over 200 µM.

As to `CN(N=O)C(=O)ON1C(=O)CCC1=O`, the EC50 was over 1230 µM and the IC50 is 107 µM.

On to `COC(=O)C1Cc2ccc3c(c2C1=O)CCCC3` (centres undefined), for which the EC50 was over 200 µM and the IC50 was found to be 186 µM.

As for `NNC(=S)N/N=C(/C(=O)Nc1cc(Cl)ccc1Cl)C1C(=O)Nc2ccccc2S1=O` (centres undefined), the EC50 is over 513 µM and the IC50 is 257 µM.

In the case of `NNC(=O)N/N=C1\C(=O)N(c2ccc(Cl)c(Cl)c2)C(=O)C(=O)C1c1nc2ccccc2s1` (centres undefined), the result was inactive.

In the case of `Oc1cc2ccccc2cc1OC(F)(F)c1nc2ccccc2o1`, the EC50 was over 200 µM and the IC50 stood at 12.3 µM.

For the molecule `C/C(=N\Oc1cc(Cl)ncn1)c1ccccn1`, the EC50 was over 200 µM and the IC50 was determined as 30.2 µM.

As to `Cc1ccc(SCC(OCn2cnc3c(Cl)nc(N)nc32)[C@H](C)F)cc1` (some centres undefined), the EC50 was over 200 µM and the 50% inhibitory concentration (IC50) worked out at 24 µM.

On to `O=Nc1ccc2ccccc2c1O`, for which the EC50 is over 200 µM and the IC50 was found to be 4.27 µM.

For the molecule `O=C1C(=Cc2ccccc2[N+](=O)[O-])N=C(c2ccccc2)N1n1c(-c2ccccc2)nc2ccccc2c1=O`, the EC50 was over 200 µM and the concentration for half-maximal inhibition (IC50) is 29.5 µM.

For the molecule `CC(=O)c1cccc(C(C)=O)c1N=Cc1ccc(O)cc1`, the result was inactive.

`CN=C(N)c1ncn(C2OC(CO)C(O)C2O)n1` (centres undefined): the result was inactive.

As to `CCC[CH2][Sn]1([CH2]CCC)[O]N=Cc2ccccc2[O]1`, the EC50 is over 14.1 µM and the IC50 came out at 0.437 µM.

For the molecule `COC(=O)/C([Se]c1c(C)cc(C)cc1C)=C(/[Se]c1c(C)cc(C)cc1C)C(=O)OC`, the outcome was inactive.

As for `O=c1oc2c(ccc3occc32)c(N2CCCCC2)c1-c1ccccc1`, the result was inactive.

For the molecule `CCC(=O)NC1Cc2cc(C)cc(C)c21` (centres undefined), the EC50 is over 89.1 µM and the IC50 was over 89.1 µM.

With `O=C(CCN1CCCCC1CO)Nc1ccc2c(c1)C(=O)c1ccc(NC(=O)CCN3CCCCC3CO)cc1C2=O` (centres undefined), the EC50 is over 200 µM and the IC50 turned out to be 3.16 µM.

As for `Cc1[nH]c2c(C)c3c([nH]c4ccc(Cl)cc43)c(C)c2c(=O)c1C`, the EC50 is over 17 µM and the IC50 was found to be 9.77 µM.

Regarding `CCOC(=O)C#CCC/C=C(\C)COC1CCCCO1` (centres undefined), the outcome was inactive.

For the molecule `C=C(C)COC(=O)COCC(=O)OCC(=C)C`, the EC50 is over 200 µM and the IC50 is over 200 µM.

Turning to `COc1ccc(NC(=O)CC(=O)n2nc(-c3ccccc3)c(N=Nc3ccccc3C(=O)O)c2-c2ccccc2)cc1`, the EC50 was over 17.8 µM and the IC50 was over 17.8 µM.

As for `O=C(NN1CCOC1=O)OCCCl`, the EC50 is over 200 µM and the IC50 was over 200 µM.

On to `CCOC(=O)C12CCC(c3c(C)cccc3C)(O1)C(C(=O)OC)=C2C(=O)OC` (centres undefined), for which the EC50 is over 200 µM and the IC50 was 107 µM.

Regarding `COc1ccc2nc3cc(Cl)ccc3c(NCCC[N+](C)(C)CCCCCCCCCCCCCCCC[N+](C)(C)CCCNc3c4ccc(Cl)cc4nc4ccc(OC)cc34)c2c1`, the outcome was inactive.

For the molecule `C[n+]1c(-c2ccc(/C=N/NC(=O)C(=O)N/N=C/c3ccc(-c4cn5ccccc5[n+]4C)cc3)cc2)cn2ccccc21`, the EC50 was 56.2 µM and > 200 µM; the IC50 was 74.1 µM and > 200 µM.

For `CCCCOCOc1ccccc1P1(=O)COc2ccccc2OC1`, the EC50 is over 200 µM and the IC50 was 44.7 µM.

For `O=C1N[C@H]2CCCC[C@@H]2C(=O)N1OS(=O)(=O)c1ccccc1`, the EC50 is over 200 µM and the IC50 is over 200 µM.
